From patent US20060052430A1, “Antihistamines for increased tolerance to extreme heat” (priority 2004, published 2006)

Key:
[1] = in vivo; cited from earlier work
rat = details: literature; cited from earlier work
chickens = details: cimetidine in the diet, stress was not heat; cited from earlier work
[2] = conscious rats, i.v. 10 mg/kg in 3% EtOH 30 minutes prior to heat exposure at 44° C. ± 1

## CN/C(=N/CCSCc1nc[nH]c1C)NC#N [Cimetidine, cimetidine]
Conscious rats; FIG. 1
  Core body temperature after onset of heat stroke until heat shock, vs controls: lower core body temperature
Conscious rats; FIG. 1, cimetidine pretreated animals
  Time a lower, non-pathological core temperature is maintained in extreme heat, vs controls: 2-4 times longer
Conscious rats; FIG. 2
  Time of MAP blood pressure crash, vs controls: delayed
Conscious rats; cimetidine pretreatment, P<0.05
  Increase of interval between initiation of exposure to extreme heat and heat stroke crash to 40 mmHg, vs control: 2.6 fold
Conscious rats; [2]
  Max. HR (heart rate): 532 ± 28 BPM ± SEM
  Max. MAP (mean arterial pressure): 173 ± 23 mmHg ± SEM
  Max. TB (body temperature): 41.9 ± 0.9 °C ± SEM
Conscious rats; conscious rats, i.v. 10 mg/kg in 3% EtOH 30 minutes prior to heat exposure at 44° C. ± 1, p<0.05 vs control
  Heat Tolerance (time of heat exposure until heat shock, TB ≧ 41.3° C. and MAP <40 mmHg): 315 ± 61 minutes ± SEM
Conscious rats; rat, in vivo
  Heart rate in the interval from exposure to heat stroke, MAP crash, vs controls: did not differ
[1]
  Half-life: 2 h
rat
  Effect in heat-induced brain injury (blood-brain barrier permeability, cerebral blood flow disturbances, edema, cell reactions): beneficial
chickens
  Stress-induced modulations: reduced
